Measured values: ChEMBL document CHEMBL5500327, “Targeting insulin-like growth factor 2 mRNA-binding proteins (IGF2BPs) for the treatment of cancer” (Eur J Med Chem, 2024)
Each block holds one compound with its values, some of them ahead of it.

How the values were obtained:
[1] = system: HL-60; assay: Antiproliferative activity against human HL-60 cells assessed as reduction in cell viability incubated for 24 hrs by MTT assay; settings: HL-60, 24 h
[2] = Inhibition of full length IMP-1 (unknown origin) binding to fluorescein labeled 93 nucleotide c-Myc mRNA expressed in Escherichia coli BL21 (DE3) pLysS by FAMA method
[3] = system: K562; assay: Antiproliferative activity against human K562 cells assessed as reduction in cell viability incubated for 24 hrs by MTT assay; settings: K562, 24 h
[4] = molecular target: T1, Insulin-like growth factor 2 mRNA-binding protein 1 (Homo sapiens, UniProt Q9NZI8); assay: Binding affinity to human recombinant IGF2BP1 assessed as dissociation constant by SPR analysis
T1 sequence (Q9NZI8 whole entry): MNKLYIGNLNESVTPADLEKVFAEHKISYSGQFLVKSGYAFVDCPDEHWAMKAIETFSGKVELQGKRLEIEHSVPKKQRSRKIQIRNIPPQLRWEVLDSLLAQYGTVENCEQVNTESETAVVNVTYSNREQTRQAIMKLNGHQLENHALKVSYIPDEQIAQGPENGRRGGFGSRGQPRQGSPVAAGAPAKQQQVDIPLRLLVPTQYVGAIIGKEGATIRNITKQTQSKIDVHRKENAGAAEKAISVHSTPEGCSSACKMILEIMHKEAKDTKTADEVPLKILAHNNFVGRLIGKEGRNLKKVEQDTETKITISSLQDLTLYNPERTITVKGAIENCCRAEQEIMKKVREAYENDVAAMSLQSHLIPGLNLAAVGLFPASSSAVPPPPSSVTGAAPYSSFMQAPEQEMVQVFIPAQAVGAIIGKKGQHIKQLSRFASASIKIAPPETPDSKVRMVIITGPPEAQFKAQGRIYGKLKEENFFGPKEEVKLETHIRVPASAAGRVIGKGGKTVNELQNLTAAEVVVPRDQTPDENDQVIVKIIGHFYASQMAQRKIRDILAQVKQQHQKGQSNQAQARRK

[5] = Cytotoxicity against human Huh-7 cells assessed as reduction in cell viability incubated for 24 hrs by MTT assay
[6] = molecular target: Insulin-like growth factor 2 mRNA-binding protein 2 (Homo sapiens, UniProt Q9Y6M1); assay: Binding affinity to Histidine-tagged IMP-2 (unknown origin) assessed as dissociation constant by fluorescence polarization assay
Insulin-like growth factor 2 mRNA-binding protein 2, sequence (Q9Y6M1 whole entry): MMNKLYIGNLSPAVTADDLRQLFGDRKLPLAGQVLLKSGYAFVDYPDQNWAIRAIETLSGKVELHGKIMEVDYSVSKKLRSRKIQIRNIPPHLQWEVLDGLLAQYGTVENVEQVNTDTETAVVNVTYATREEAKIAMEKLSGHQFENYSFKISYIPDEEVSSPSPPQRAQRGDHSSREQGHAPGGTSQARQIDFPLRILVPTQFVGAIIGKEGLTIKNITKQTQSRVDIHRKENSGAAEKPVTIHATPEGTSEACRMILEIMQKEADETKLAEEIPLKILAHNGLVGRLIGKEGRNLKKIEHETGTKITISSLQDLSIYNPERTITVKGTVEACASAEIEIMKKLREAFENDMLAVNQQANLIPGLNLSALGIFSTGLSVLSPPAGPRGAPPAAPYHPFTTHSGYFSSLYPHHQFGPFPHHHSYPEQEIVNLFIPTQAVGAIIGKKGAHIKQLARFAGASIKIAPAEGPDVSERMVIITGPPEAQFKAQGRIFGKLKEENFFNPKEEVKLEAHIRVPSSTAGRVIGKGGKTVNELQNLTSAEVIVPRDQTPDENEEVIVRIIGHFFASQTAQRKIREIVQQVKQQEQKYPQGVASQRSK

[7] = system: THP-1; assay: Antiproliferative activity against human THP-1 cells assessed as reduction in cell growth incubated for 24 hrs by MTT assay; settings: THP-1, 24 h
[8] = molecular target: T1, Insulin-like growth factor 2 mRNA-binding protein 1; assay: Inhibition of full length recombinant IGF2BP1 (unknown origin) by fluorescence polarization assay
[9] = molecular target: T1, Insulin-like growth factor 2 mRNA-binding protein 1; assay: Binding affinity to IGF2BP1 (unknown origin) assessed as dissociation constant by MST assay
[10] = system: NCI-H1299; assay: Antiproliferative activity against human NCI-H1299 cells assessed as reduction in cell growth incubated for 24 hrs by MTT assay; settings: NCI-H1299, 24 h

IC50 [1]: 21.6 µM
IC50 [2]: 5 µM
IC50 [3]: 6.76 µM
SMILES: NC(=O)c1ccccc1/N=C/c1ccc(Br)s1

SMILES: CC(=O)OC(C)(C)/C=C/C(=O)[C@](C)(O)[C@H]1[C@H](O)C[C@@]2(C)[C@@H]3CC=C4[C@@H](C[C@H](O)C(=O)C4(C)C)[C@]3(C)C(=O)C[C@]12C
Kd [4]: 1.2 µM
IC50 at 24 h [5]: 4.1 µM

IC50 [6]: 81.3 µM
SMILES: O=C(Nc1ccc(OC(F)(F)F)cc1C(=O)O)c1ccc(-c2ccccc2)cc1

IC50 [6]: 121 µM
SMILES: CCN(Cc1ccccc1)C(=O)Nc1cc(-c2ccc(C(F)(F)F)cc2)sc1C(=O)O

IC50 [7]: 0.2 µM
SMILES: Oc1ccc(Cl)cc1/C=N\N/C(=N/N=C/c1cc(Cl)ccc1O)N/N=C/c1cc(Cl)ccc1O

IC50 [6]: 65.3 µM
SMILES: CCCN(CCc1ccccc1)C(=O)Nc1cc(-c2ccc(Cl)c(Cl)c2)sc1C(=O)O

IC50 [8]: 91.1 µM
SMILES: O=C(c1ccc(-n2cnnn2)cc1)N1CCCC(Nc2ccc3c(c2)OCO3)C1 (configuration not stated)

Kd [9]: 1.4 µM
IC50 [10]: 0.8 µM
SMILES: O=C(c1ccc(Cn2cc(CO)c3ccccc32)cc1)N1CCN(c2ccc3c(c2)OCO3)CC1
